Source: ChEMBL document CHEMBL5370537, “Aporphines: A privileged scaffold in CNS drug discovery” (Eur J Med Chem, 2023)

Assays:
[1] = test system: BV-2; assay: Inhibition of NO production in LPS-induced mouse BV-2 cells incubated for 24 hrs by Griess reagent based microplate reader analysis; format: functional, cell-based; conditions: BV-2, 24 h
[2] = molecular target: D(2) dopamine receptor (Homo sapiens, UniProt P14416); assay: Antagonist activity at D2R (unknown origin); format: functional
[3] = molecular target: T1, 5-hydroxytryptamine receptor 2C (Homo sapiens, UniProt P28335); assay: Agonist activity at 5-HT2C (unknown origin); format: functional
T1 sequence (P28335 whole entry): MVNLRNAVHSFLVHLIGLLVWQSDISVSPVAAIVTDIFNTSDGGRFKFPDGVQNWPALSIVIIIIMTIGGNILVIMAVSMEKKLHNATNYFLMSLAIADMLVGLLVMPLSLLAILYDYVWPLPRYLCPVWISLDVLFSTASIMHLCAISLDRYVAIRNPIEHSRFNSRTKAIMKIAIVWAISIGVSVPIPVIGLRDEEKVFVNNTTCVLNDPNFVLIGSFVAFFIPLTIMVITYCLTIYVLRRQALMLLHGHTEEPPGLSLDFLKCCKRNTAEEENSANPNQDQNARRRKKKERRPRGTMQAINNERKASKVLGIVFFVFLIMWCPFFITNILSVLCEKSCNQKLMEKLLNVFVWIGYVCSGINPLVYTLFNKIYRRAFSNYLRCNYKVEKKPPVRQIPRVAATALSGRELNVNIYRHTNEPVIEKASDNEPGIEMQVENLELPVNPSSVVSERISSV

[4] = molecular target: T2, 5-hydroxytryptamine receptor 2C (Homo sapiens) (UniProt P28335); assay: Agonist activity at 5-HT2C (unknown origin) relative to control; format: functional; conditions: filed as agonist
T2 sequence (whole entry): T1 sequence (P28335 whole entry)

[5] = molecular target: T3, 5-hydroxytryptamine receptor 2A (Homo sapiens, UniProt P28223); assay: Antagonist activity at 5-HT2A (unknown origin) transfected in HEK293 cells by FLIPR assay; format: functional, cell-based
[6] = molecular target: Acetylcholinesterase (Electrophorus electricus, UniProt O42275); assay: Inhibition of Electrophorus electricus AChE using ATCI as substrate pre-incubated for 10 mins followed by substrate addition measured after 5 mins by microplate reader analysis
[7] = molecular target: Cholinesterase (Equus caballus, UniProt P81908); assay: Inhibition of equine serum BuChE using BTCI as substrate pre-incubated for 10 mins followed by substrate addition measured after 5 mins by microplate reader analysis
[8] = molecular target: T3, 5-hydroxytryptamine receptor 2A; assay: Binding affinity to human 5-HT2A transfected in HEK293 cells assessed as antagonist dissociation constant measured after 1 hrs; format: cell-based; conditions: filed as antagonist
[9] = molecular target: T4, 5-hydroxytryptamine receptor 2B (Homo sapiens, UniProt P41595); assay: Binding affinity to human 5-HT2B transfected in HEK293 cells assessed as antagonist dissociation constant measured after 1 hrs; format: cell-based; conditions: filed as antagonist
[10] = molecular target: T2, 5-hydroxytryptamine receptor 2C (Homo sapiens); assay: Binding affinity to human 5-HT2C transfected in HEK293 cells assessed as antagonist dissociation constant measured after 1 hrs; format: cell-based; conditions: filed as antagonist
[11] = molecular target: T5, Alpha-1A adrenergic receptor (Homo sapiens) (UniProt P35348); assay: Binding affinity to human alpha1A adrenergic receptors transfected in HEK293 cells assessed as antagonist dissociation constant measured after 1 hrs; format: cell-based; conditions: filed as antagonist
T5 sequence (whole entry): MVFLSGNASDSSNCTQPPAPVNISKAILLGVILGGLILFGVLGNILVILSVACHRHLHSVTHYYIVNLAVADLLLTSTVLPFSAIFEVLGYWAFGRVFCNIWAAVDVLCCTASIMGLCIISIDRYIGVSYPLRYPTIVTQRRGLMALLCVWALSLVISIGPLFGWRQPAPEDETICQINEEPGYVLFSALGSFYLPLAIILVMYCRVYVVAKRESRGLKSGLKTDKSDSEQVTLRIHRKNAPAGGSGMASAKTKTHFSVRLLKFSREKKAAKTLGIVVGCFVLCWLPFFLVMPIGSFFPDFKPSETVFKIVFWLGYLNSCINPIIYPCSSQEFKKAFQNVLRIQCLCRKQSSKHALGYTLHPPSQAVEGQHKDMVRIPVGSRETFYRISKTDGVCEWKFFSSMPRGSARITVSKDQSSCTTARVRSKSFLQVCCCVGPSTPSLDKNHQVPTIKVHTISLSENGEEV

[12] = molecular target: T6, Alpha-1B adrenergic receptor (Homo sapiens) (UniProt P35368); assay: Binding affinity to human alpha1B adrenergic receptors transfected in HEK293 cells assessed as antagonist dissociation constant measured after 1 hrs; format: cell-based; conditions: filed as antagonist
T6 sequence (whole entry): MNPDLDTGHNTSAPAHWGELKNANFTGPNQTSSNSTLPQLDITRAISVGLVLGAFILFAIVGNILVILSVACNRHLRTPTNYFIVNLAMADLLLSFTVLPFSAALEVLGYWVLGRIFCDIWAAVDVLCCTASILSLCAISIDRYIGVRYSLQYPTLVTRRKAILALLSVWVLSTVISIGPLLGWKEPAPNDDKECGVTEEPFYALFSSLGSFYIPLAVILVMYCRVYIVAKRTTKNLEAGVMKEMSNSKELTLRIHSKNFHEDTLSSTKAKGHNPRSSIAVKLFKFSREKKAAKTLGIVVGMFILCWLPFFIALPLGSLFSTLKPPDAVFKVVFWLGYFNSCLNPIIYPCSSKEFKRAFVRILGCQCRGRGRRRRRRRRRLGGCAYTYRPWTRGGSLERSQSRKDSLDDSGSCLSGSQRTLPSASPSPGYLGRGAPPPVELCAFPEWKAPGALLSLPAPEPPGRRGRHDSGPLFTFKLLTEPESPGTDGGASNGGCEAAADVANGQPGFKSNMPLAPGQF

[13] = molecular target: T7, Alpha-1D adrenergic receptor (Homo sapiens) (UniProt P25100); assay: Binding affinity to human alpha1D adrenergic receptors transfected in HEK293 cells assessed as antagonist dissociation constant measured after 1 hrs; format: cell-based; conditions: filed as antagonist
T7 sequence (whole entry): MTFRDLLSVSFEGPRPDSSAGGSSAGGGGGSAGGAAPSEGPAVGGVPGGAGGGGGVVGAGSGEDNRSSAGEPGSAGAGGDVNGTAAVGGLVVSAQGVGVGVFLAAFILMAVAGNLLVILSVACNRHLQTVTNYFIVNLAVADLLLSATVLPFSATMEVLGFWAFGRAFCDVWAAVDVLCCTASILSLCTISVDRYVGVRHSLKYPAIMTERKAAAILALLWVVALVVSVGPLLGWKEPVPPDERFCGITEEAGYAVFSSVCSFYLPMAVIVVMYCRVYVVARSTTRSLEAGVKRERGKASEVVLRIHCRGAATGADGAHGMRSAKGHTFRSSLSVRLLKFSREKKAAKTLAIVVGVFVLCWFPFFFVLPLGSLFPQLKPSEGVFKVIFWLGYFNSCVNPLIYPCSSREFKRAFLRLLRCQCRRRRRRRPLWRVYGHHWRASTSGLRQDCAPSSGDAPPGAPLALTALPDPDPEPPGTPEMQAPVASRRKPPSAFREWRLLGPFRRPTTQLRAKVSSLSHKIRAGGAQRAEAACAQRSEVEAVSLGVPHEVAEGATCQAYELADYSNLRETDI

[14] = molecular target: D(1A) dopamine receptor (Homo sapiens, UniProt P21728); assay: Antagonist activity at D1R (unknown origin) transfected in HEK293 cells by FLIPR assay
[15] = molecular target: T4, 5-hydroxytryptamine receptor 2B; assay: Agonist activity at 5-HT2B (unknown origin); format: functional
[16] = molecular target: T3, 5-hydroxytryptamine receptor 2A; assay: Agonist activity at 5-HT2A (unknown origin); format: functional
[17] = molecular target: T4, 5-hydroxytryptamine receptor 2B; assay: Agonist activity at 5-HT2B (unknown origin) relative to control; format: functional; conditions: filed as agonist
[18] = molecular target: T3, 5-hydroxytryptamine receptor 2A; assay: Agonist activity at 5-HT2A (unknown origin) relative to control; format: functional; conditions: filed as agonist
[19] = Selectivity index, ratio of EC50 for agonist activity at 5-HT2C (unknown origin) to EC50 for agonist activity at 5-HT2B (unknown origin)
[20] = Selectivity index, ratio of EC50 for agonist activity at 5-HT2C (unknown origin) to EC50 for agonist activity at 5-HT2A (unknown origin)
[21] = molecular target: 5-hydroxytryptamine receptor 7 (Rattus norvegicus, UniProt P32305); assay: Displacement of [3H]5-HT from rat 5-HT7 assessed as inhibition constant
[22] = test system: SH-SY5Y; assay: Neuroprotective activity against human SH-SY5Y cells assessed as increase in BDNF level at 20 uM measured after 48 hrs relative to control; format: functional
[23] = test system: SH-SY5Y; assay: Neuroprotective activity against human SH-SY5Y cells assessed as increase in BDNF level measured after 48 hrs; format: functional, cell-based
[24] = test system: BV-2; assay: Potency index, ratio of minocycline IC50 to test compound IC50 for inhibition of NO production in LPS-induced mouse BV-2 cells incubated for 24 hrs by Griess reagent based microplate reader analysis; format: functional

Cholinesterase, sequence (P81908 whole entry): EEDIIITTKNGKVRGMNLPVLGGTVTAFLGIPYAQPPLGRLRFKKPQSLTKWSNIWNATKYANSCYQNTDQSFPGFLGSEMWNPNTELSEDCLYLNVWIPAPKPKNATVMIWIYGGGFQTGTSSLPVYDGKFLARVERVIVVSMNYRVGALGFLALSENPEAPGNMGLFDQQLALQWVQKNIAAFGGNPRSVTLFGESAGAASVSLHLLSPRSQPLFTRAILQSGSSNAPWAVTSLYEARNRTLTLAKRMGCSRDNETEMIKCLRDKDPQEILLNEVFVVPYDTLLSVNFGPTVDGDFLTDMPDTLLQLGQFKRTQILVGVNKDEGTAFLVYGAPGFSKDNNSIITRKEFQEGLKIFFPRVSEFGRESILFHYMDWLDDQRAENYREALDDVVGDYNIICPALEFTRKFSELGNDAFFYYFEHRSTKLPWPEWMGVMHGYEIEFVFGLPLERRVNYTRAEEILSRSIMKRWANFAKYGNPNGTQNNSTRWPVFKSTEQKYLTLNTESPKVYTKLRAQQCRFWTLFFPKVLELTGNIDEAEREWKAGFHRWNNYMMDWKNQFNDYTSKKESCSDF
Acetylcholinesterase, sequence (O42275 whole entry): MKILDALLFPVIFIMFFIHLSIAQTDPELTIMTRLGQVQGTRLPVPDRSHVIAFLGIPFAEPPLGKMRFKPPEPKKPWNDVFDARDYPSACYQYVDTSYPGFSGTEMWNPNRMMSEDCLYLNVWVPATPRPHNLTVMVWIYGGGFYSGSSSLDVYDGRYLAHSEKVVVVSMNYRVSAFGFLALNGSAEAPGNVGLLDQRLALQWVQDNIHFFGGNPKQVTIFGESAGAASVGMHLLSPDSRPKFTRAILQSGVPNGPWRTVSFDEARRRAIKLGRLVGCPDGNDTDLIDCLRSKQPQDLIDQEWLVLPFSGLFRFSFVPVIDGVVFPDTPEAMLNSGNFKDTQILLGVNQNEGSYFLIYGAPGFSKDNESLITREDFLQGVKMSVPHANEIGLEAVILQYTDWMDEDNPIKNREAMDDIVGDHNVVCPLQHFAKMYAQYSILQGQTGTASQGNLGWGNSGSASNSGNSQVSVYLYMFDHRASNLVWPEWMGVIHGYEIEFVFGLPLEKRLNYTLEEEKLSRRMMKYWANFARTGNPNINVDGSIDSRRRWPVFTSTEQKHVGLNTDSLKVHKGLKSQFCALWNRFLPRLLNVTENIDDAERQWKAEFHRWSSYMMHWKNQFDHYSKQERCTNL
T3 sequence (P28223 whole entry): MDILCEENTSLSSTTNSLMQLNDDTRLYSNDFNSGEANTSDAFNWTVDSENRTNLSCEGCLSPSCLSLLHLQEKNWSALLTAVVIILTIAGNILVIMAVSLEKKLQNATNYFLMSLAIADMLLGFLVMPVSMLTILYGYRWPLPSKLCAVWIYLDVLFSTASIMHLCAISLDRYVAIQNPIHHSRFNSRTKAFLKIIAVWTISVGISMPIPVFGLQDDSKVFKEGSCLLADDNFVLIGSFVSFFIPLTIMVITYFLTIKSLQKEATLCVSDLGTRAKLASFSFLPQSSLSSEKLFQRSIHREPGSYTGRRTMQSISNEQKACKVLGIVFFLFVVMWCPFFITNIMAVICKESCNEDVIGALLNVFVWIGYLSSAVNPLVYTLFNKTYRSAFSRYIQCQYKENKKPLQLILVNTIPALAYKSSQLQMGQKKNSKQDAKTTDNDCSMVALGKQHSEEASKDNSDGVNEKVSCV
T4 sequence (P41595 whole entry): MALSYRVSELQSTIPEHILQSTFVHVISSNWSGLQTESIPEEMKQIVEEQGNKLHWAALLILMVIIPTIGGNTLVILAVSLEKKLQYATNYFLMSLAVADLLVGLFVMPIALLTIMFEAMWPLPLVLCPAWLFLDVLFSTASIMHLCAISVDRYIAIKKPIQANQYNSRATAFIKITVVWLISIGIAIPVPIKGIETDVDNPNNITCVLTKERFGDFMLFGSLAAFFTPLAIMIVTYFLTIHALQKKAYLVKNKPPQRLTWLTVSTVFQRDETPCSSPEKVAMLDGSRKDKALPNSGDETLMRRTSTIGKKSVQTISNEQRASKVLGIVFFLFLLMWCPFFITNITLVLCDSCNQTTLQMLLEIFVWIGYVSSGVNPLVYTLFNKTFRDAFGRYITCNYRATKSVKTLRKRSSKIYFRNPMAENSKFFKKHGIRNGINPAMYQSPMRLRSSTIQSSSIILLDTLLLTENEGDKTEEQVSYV
D(2) dopamine receptor, sequence (P14416 whole entry): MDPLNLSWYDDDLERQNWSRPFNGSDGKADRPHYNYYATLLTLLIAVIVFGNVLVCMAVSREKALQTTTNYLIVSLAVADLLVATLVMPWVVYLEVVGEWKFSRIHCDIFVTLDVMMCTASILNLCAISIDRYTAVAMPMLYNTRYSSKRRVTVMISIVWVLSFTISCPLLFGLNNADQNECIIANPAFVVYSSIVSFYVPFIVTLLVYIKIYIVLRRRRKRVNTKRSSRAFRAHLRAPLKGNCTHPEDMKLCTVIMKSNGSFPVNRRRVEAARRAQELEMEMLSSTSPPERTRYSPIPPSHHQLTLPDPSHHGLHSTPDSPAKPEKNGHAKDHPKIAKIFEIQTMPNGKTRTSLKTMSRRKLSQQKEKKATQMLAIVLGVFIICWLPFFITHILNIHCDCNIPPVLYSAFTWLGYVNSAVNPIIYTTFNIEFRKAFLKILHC
5-hydroxytryptamine receptor 7, sequence (P32305 whole entry): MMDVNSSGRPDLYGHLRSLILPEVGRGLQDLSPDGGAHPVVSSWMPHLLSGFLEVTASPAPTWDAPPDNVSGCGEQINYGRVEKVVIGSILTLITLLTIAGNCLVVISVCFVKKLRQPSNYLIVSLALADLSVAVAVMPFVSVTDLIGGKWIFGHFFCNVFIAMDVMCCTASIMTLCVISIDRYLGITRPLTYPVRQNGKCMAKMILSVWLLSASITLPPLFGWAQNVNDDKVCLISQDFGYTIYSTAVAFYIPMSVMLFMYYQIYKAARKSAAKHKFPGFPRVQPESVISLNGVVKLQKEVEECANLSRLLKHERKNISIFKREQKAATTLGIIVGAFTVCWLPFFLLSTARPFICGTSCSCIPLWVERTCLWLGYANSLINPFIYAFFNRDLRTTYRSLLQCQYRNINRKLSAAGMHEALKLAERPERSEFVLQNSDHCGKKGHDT
D(1A) dopamine receptor, sequence (P21728 whole entry): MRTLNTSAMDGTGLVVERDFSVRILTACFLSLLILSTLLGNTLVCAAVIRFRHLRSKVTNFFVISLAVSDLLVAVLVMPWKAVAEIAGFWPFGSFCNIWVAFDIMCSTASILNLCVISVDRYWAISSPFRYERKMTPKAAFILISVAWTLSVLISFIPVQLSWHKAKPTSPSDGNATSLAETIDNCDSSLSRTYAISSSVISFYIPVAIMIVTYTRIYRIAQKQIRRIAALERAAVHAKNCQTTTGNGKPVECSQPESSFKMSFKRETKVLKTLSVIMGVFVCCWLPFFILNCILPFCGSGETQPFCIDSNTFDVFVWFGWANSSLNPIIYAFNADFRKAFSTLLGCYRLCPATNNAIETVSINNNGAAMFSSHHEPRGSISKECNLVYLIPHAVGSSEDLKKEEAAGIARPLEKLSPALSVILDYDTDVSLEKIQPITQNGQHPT

Compound: CN(C)c1ccc(O)c2c1C[C@H]1C[C@H]3[C@H](N(C)C)C(O)=C(C(N)=O)C(=O)[C@@]3(O)C(O)=C1C2=O [MINOCYCLINE]
- IC50 [1]: 15.5 µM

Compound: COc1ccc(OC)c2c1C[C@@H]1c3c(cc4c(c3-2)OCO4)CCN1C
- IC50 [2]: 18.3 µM

Compound: Oc1cc2c3c(c1Cl)-c1ccccc1C[C@H]3NCC2
- EC50 [3]: 0.304 µM
- Emax [4]: 41.6%

Compound: COc1c(O)cc2c3c1-c1ccccc1CC3N(C)CC2 (centres undefined)
- IC50 [5]: 19.6 µM

Compound: COc1cc2c(cc1OC)-c1c3c(cc4c1[C@H](C2)N(C)CC4)OCO3 [DICENTRINE]
- IC50 [6]: 6.11 µM
- IC50 [7]: 26.4 µM
- Kb [8]: 0.0839 µM
- Kb [9]: 0.208 µM
- Kb [10]: 0.776 µM
- Kb [11]: 0.163 µM
- Kb [12]: 0.155 µM
- Kb [13]: 0.181 µM

Compound: COc1c2c3c(c4c1OCO4)-c1ccccc1C[C@H]3N(C)CC2
- IC50 [6]: 39.8 µM
- IC50 [7]: 104 µM

Compound: COc1c(O)cc2c3c1-c1ccccc1CC3NCC2 (centres undefined)
- IC50 [14]: 7.2 µM

Compound: Oc1cc2c3c(c1Cl)-c1ccccc1CC3NCC2 (centres undefined)
- EC50 [3]: 0.0236 µM
- Emax [4]: 102%
- EC50 [15]: 0.278 µM
- EC50 [16]: 0.596 µM
- Emax [17]: 63.5%
- Emax [18]: 44.9%
- Ratio EC50 [19]: 12
- Ratio EC50 [20]: 25

Compound: CN1CCc2cc3c(c4c2c1cc1ccccc14)OCO3 [DEHYDROROEMERINE]
- IC50 [6]: 1.21 µM
- IC50 [7]: 3.34 µM
- IC50 [1]: 1.3 µM

Compound: CN1CCc2ccc3c4c2[C@H]1Cc1cccc(c1-4)C3
- Ki [21]: 0.0043 µM

Compound: CN1CCc2cc3c(c4c2[C@H]1Cc1ccccc1-4)OCO3
- IC50 [2]: 18.8 µM
- IC50 [6]: 8.32 µM
- IC50 [7]: 2.8 µM
- Activity [22]: 73%

Compound: COc1cccc2c1cc1c3c(cc4c(c32)OCO4)CCN1C
- IC50 [1]: 30.2 µM

Compound: COc1ccc2c(c1OC)C[C@@H]1c3c(cc4c(c3-2)OCO4)CCN1C
- IC50 [6]: 10.5 µM
- IC50 [7]: 17.4 µM
- IC50 [1]: 5.26 µM
- IC50 [23]: 5.26 µM
- Ratio IC50 [24]: 3

Compound: COc1c(O)ccc2c1cc1c3c(cc4c(c32)OCO4)CCN1C
- IC50 [1]: 39.2 µM
